In ChEMBL document CHEMBL1134671, “Novel lead generation through hypothetical pharmacophore three-dimensional database searching: discovery of isoflavonoids as nonsteroidal inhibitors of rat 5 alpha-reductase” (J Med Chem, 2001):

Molecular target: T1, Steroid 5-alpha-reductase (Rattus norvegicus, UniProt P24008+P31214)
T1 sequence (P24008 whole entry): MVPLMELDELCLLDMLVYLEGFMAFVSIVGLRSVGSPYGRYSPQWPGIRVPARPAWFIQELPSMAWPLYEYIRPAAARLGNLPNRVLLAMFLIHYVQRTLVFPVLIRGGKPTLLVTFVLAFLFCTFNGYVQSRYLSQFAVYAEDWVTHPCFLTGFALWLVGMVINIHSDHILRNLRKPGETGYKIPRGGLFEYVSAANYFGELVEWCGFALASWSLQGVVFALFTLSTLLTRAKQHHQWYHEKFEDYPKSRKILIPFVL
T1 sequence (P31214 whole entry): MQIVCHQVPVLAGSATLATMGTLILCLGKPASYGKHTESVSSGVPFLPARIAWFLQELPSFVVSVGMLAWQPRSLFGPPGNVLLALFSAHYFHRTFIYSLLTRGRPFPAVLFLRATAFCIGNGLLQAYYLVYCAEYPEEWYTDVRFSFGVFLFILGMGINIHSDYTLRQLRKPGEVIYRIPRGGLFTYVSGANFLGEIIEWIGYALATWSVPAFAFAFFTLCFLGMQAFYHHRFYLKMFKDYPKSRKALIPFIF
Experiment: Inhibitory concentration against rat Steroid 5-alpha-reductase
Assay type: protein assay

SMILES	IC50 [µM]
CC(C)(O)C1Cc2c(ccc(-c3coc4cc5c(c(O)c4c3=O)CC(C(C)(C)O)O5)c2O)O1 (stereo not drawn)	26.2
COc1ccc(-c2coc3c4c(cc(OC)c3c2=O)OC(C)(C)C=C4)c(OC)c1	30.1
CC(C)(O)C1Cc2c(O)ccc(-c3coc4cc(O)cc(O)c4c3=O)c2O1 (stereo not drawn)	6.9
COc1cc2c(cc1OC)-c1c(oc3c4c(cc(O)c3c1=O)OC(C)(C)C=C4)CO2	48.7
CC(C)(O)C1Cc2c(ccc(-c3coc4cc(O)cc(O)c4c3=O)c2O)O1 (stereo not drawn)	23.1
C=C(C)C1Cc2c(cc3occ(-c4ccc(O)cc4O)c(=O)c3c2O)O1 (stereo not drawn)	15.7
COc1cc2c(c3occ(-c4ccc(OCc5ccccc5)cc4OCc4ccccc4)c(=O)c13)C=CC(C)(C)O2	27.4
COc1cc2c(c3occ(-c4ccc(OCc5ccccc5)cc4OCc4ccccc4)c(=O)c13)C(=O)CC(C)(C)O2	31
